Usually IC50 stands for the concentration needed to halve the response being measured.

The test system of assay [1] is RBL-2H3 cells. Put plainly: Histamine release assay (ELISA). It is filed as cell-based, rat. The method, then: (§1) RBL-2H3 cells were plated into 24-well culture dishes at a cell density of 2 × 10^5 cells per well, or into 6-well culture dishes at a cell density of 9 × 10^5 cells per well, for 1 day at 37 °C in 5% CO2 atmosphere. After 1 day, RBL-2H3 cells were stimulated with SP (10 μM) or vehicle (water) and incubated for 15 min at 37 °C in 5% CO2 atmosphere.
SP-stimulated RBL-2H3 cells (2 × 10^5 cells/well) were treated with PEA (10 μM) or vehicle (methanol) for 15 min at 37 °C in 5% CO2 atmosphere. SP-stimulated RBL-2H3 cells were also treated with a CB2 antagonist, AM630 (0.1 μM), in the presence and absence of PEA (10 μM), or JWH133 (0.1 μM) (a CB2 synthetic agonist), and incubated for the indicated time. SP-stimulated RBL-2H3 cells were also treated with 2-AG (0.1 and 1 μM), or co-treated with PEA (0.1 μM) and 2-AG (0.1 μM), and incubated for the indicated time. SP-stimulated RBL-2H3 cells were also co-treated with PEA (10 μM) and OMDM188 (10 μM) (a DAGL inhibitor), and incubated for the indicated time. After 15 min, the supernatants were collected and the amounts of secreted histamine were measured by using a histamine ELISA kit according to the manufacturer’s instructions (Abnova) and by using a reader GENios Pro (Tecan). Data were expressed as nanograms per milliliter of histamine.
Background: In an ELISA, binding on a coated surface is turned into a signal by an enzyme label.

In assay [2] the test system is RBL-2H3 cells. Put plainly: Toluidine blue staining, percentage of degranulation. The format is cell-based, rat. The method, then:
SP-stimulated RBL-2H3 cells [plated on poly-L-lysine (33 μg/ml) coated slides (Deckglaser, 21 × 26 mm) into 6-well culture dishes at a cell density of 9 × 10^5 cells per well] were treated and incubated as described above for histamine release assay. After 15 min, the cells were fixed with paraformaldehyde at 4% for 20 min and incubated for 3 min with toluidine blue at 0.01% in 3% acetic acid. Subsequently, a 5 min wash in distilled water and dehydration in increasing alcohols (90%, 100%) were performed. Cells were then clarified by treatment with Xylol for 5 min and finally dried slides were mounted with the DPX histogram upright. The cells were observed using a Leica DMI6000 digital microscope, acquired using the Leica DFC 340FX digital camera connected to the microscope and analyzed using the LAS AF 2.2.0 software. Degranulated RBL-2H3 cells were counted and the percentage of degranulation (based on the number of colorable cells) was calculated.

Assay [3] deals with RBL-2H3 cells. Nature of the assay: β-Hexosaminidase release assay. The format is cell-based, rat. As to conditions: substance alone 10 μM, 15 min, vs vehicle-treated cells. The method, then: as §1
SP-stimulated RBL-2H3 cells (2 × 10^5 cells/well) were treated with PEA (0.1, 0.5, 1, and 10 μM) or vehicle (methanol, max 0.1%) for 15 min at 37 °C in 5% CO2 atmosphere. After 15 min, the supernatants (15 μl) were transferred to 96-well plates and incubated with 60 μl of substrate (1 mM p-nitrophenyl-N-acetyl-β-D-glucosaminide in citrate 0.05 M, pH 4.5) for 1 h at 37 °C. To determine the total amount of released β-hexosaminidase, the cells were lysed with 0.1% Triton X-100 and incubated with substrate using the same procedure as for the determination of the activity in the supernatants. The reaction was stopped by adding 150 μl of 0.1 M sodium bicarbonate buffer (pH 10.0), and the reaction product was monitored by measuring the optical density (OD) at 405 nm by using a reader GENios Pro (Tecan). The results were expressed as % of the total β-hexosaminidase content of the cells determined by cell lysis with 0.1% Triton X-100, and calculated by using the following formula: % degranulation = [ODsupernatant/(ODsupernatant + ODtriton x−100)] × 100.

In assay [4] the test system is RBL-2H3 cells. Nature of the assay: LC-APCI-MS measurement of endogenous AEA, 2-AG and PEA levels. It is filed as cell-based, rat. The note with it: for decrease of endogenous levels of 2-AG: OMDM188 10 μM in the presence of PEA 10 μM. The method, then:
RBL-2H3 cells (9 × 10^5 cells/well) were stimulated with SP (10 μM) and treated with PEA (10 μM) in the presence and absence of OMDM188 (10 μM), for 15 min at 37 °C in 5% CO2 atmosphere. After 15 min, cells and supernatants were collected and homogenized in a solution of CHCl3/CH3OH/Tris-HCl 50 mM pH 7.4 (2:1:1, v/v) containing 10 pmol of [^2H]8-AEA, [^2H]5-2-AG and [^2H]4-PEA as internal standards. The lipid-containing organic phase was dried down, weighed and pre-purified by open-bed chromatography on silica gel. Fractions obtained by eluting the column with a solution of CHCl3/CH3OH (90:10 by vol.) were analyzed by Liquid Chromatography-Atmospheric Pressure Chemical Ionization-Mass Spectrometry (LC-APCI-MS) using a Shimadzu (Shimadzu, Kyoto, Japan) HPLC apparatus (LC-10ADVP) coupled to a Shimadzu (LCMS-2020) quadrupole MS via a Shimadzu APCI interface. LC-APCI-MS analyses of 2-AG and PEA were carried out in the selected ion monitoring mode, using m/z values of 356 and 348 (molecular ions + 1 for deuterated and undeuterated AEA), 384.35 and 379.35 (molecular ions + 1 for deuterated and undeuterated 2-AG), and 304 and 300 (molecular ions + 1 for deuterated and undeuterated PEA). AEA, 2-AG and PEA levels were calculated on the basis of their area ratio with the internal deuterated standard signal areas, and their amounts (pmol) were normalized per mg of lipid extract.

The test system of assay [5] is RBL-2H3 cells. Put plainly: Quantitative real-time PCR of PEA/2-AG receptors and metabolic enzymes. It is filed as cell-based, rat. As to conditions: cells stimulated 15 min with SP 10 μM or PEA 10 μM or both, vs unstimulated. An excerpt: The mRNA expression of PEA target genes (Cnr1, Cnr2, Trpv1, Ppara, and Gpr55), as well as PEA and 2-AG biosynthetic (N-acyl phosphatidylethanolamine-specific phospholipase D, Napepld, Dagla and Daglb) and catabolic enzyme genes (fatty acid amide hydrolase, Faah; N-acylethanolamine-hydrolyzing acid amidase, Naaa; and monoacylglycerol lipase, Mgl), was studied by comparison of transcriptional expression in unstimulated RBL-2H3 cells (plated on 100 mm diameter Petri dishes) vs. the expression of these targets and enzymes in RBL-2H3 cells treated with PEA (10 μM), or stimulated with SP (10 μM) in the presence and absence of PEA (10 μM), for 15 min at 37 °C in 5% CO2 atmosphere. Total RNA was purified, quantified and reverse transcribed as previously reported. For each target, all mRNA sequences were aligned and common primers were designed (Table 1). Quantitative real-time PCR was performed by an iCycler-iQ5 in a 20 μl reaction mixture using 20 ng of cDNA. Assays were performed in quadruplicate (maximum ΔCt of replicate samples < 0.5). Optimized primers for SYBR-green analysis and optimum annealing temperatures were designed by the Allele-Id software version 7.0 (Biosoft International) and were synthesized (HPLC-purification grade) by MWG-Biotech. […] Results were expressed as fold expression compared with a reference condition (2^^−∆∆ct formula).

In the next assay the target is human CB2 receptor (Homo sapiens, UniProt P34972). Put plainly: cAMP Hunter functional activity assay at the CB2 receptors. The note with it: 2-AG alone, CHO-K1 cells overexpressing human CB2; read-out: IC50, reduction of NKH-477-induced cAMP levels. Further details: host or cells: CHO-K1. It is filed as cell-based. Here is the method: The cAMP Hunter™ eXpress G protein-coupled receptor (GPCR) assay was performed in Chinese Hamster Ovary (CHO)-Kl cells overexpressing the human CB2 receptor. Gi-coupled cAMP modulation was measured following the manufacturer’s protocol (DiscoverX, Fremont, CA). CHO-K1 cells overexpressing the human CB2 receptor were plated into a 96-well plate (3× 10^4 cells/well) and incubated overnight at 37 °C in 5% CO2 atmosphere. The media were aspirated and replaced with 30 μl of assay buffer. Cells were incubated 30 min at 37 °C with 15 μl of 3× concentration-response solutions of 2-AG (0.01–50 μM), or PEA (10 μM), prepared in presence of cell assay buffer containing a 3× of 25 μM NKH-477 solution (a water-soluble analog of Forskolin) to stimulate adenylate cyclase and enhance basal cAMP levels. We also investigated the effect of PEA on 2-AG receptor activation by co-incubation. Therefore, cells were also incubated 30 min at 37 °C with 2-AG and PEA (10 μM) in the presence of NKH-477 to stimulate adenylate cyclase and enhance cAMP levels. […] Relative luminescence units (RLU) were measured by using a GloMax Multi Detection System (Promega Italia). […] The percentage of response was calculated by using the following formula: % RESPONSE = 100% × (1-(RLU of test compound-RLU of NKH-477 positive control)/(RLU of vehicle-RLU of NKH-477 positive control).

The subject of assay [6] is RBL-2H3 cells. Put plainly: Toluidine blue staining, percentage of degranulation. As to conditions: compound alone 0.1 μM, in the absence of SP (data not shown). The format is cell-based, rat.
Where [7] appears, read: SP (10 μM)-stimulated cells, compound 0.1 μM, 15 min, vs SP + vehicle.
[8] abbreviates: compound alone 0.1 μM, in the absence of SP (data not shown).
Setting [9] is: SP (10 μM)-stimulated cells, compound 1 μM, 15 min, vs SP + vehicle.
The mark [10] stands for this setting: SP-stimulated cells treated with OMDM188 10 μM in the presence of PEA 10 μM, vs SP + vehicle.

human CB2 receptor, sequence (P34972 whole entry): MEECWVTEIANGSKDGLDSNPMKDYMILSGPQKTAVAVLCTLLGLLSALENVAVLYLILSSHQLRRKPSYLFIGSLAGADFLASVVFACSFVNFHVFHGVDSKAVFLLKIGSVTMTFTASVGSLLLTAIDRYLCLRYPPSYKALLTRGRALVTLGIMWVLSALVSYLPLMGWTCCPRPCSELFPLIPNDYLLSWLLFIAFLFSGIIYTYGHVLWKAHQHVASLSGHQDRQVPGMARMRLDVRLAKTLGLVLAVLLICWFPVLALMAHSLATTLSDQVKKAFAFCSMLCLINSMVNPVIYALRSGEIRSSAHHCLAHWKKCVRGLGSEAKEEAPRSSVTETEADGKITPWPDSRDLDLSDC

Turning to `COc1ccc(C(=O)c2c(C)n(CCN3CCOCC3)c3cc(I)ccc23)cc1` [AM630], the histamine release entry with RBL-2H3 cells [1] (setting [7]) was “comparable”; in the assay with RBL-2H3 cells [1] (setting [8]), “No effect”. Besides, the “number of degranulated cells” value in the assay with RBL-2H3 cells [2] (setting [7]) was “comparable”.
Regarding substance P [SP], in the assay on RBL-2H3 cells [3], the β-hexosaminidase release entry is “significantly released”. In the assay on RBL-2H3 cells [1] (substance alone 10 μM, 15 min, vs vehicle-treated cells), the histamine release result is on record as “significantly released”. Moreover, the “number of degranulated cells” value in the assay on RBL-2H3 cells [2] (substance alone 10 μM, 15 min, vs vehicle) is “increased the number of degranulated RBL-2H3 cells”. In addition, in the assay with RBL-2H3 cells [4] (SP 10 μM for 15 min, vs vehicle), the “endogenous levels of AEA, 2-AG, and PEA” value is listed as “did not change”. For the same compound, in the assay with RBL-2H3 cells [5], the “mRNA expression of Cnr2, Napepld, Naaa, Daglb, Faah and Mgl” value is given as “no statistically significant change”.
As for `CCCCC/C=C\C/C=C\C/C=C\C/C=C\CCCC(=O)OC(CO)CO` [2-AG, 2-arachidonoylglycerol], the histamine release result in the assay with RBL-2H3 cells [1] (setting [7]) was “comparable”; in the assay with RBL-2H3 cells [1] (setting [9]) it was “able to reduce”. Also, the “number of degranulated cells” value with RBL-2H3 cells [2] (setting [7]) is “comparable”. Further, in the assay on RBL-2H3 cells [2] (setting [9]), the degranulation entry is “able to reduce”. Moreover, the IC50 on human CB2 receptor stood at 0.59 ± 0.16 µM.
For the compound `CCCCCCCCCCC[C@@H](C[C@@H]1OC(=O)[C@H]1CCCCCC)OC(=O)[C@@H](NC=O)[C@@H](C)CC` [OMDM188], the histamine release entry in the assay with RBL-2H3 cells [1] (setting [10]) is on record as “comparable”. Also, the “number of degranulated cells” value in the assay with RBL-2H3 cells [2] (setting [10]) is “comparable”. The “decrease of endogenous levels of 2-AG” value in the assay on RBL-2H3 cells [4] (SP-stimulated cells, compared to SP + PEA only) is 2.5 fold; in the assay with RBL-2H3 cells [4] (unstimulated cells, compared to PEA 10 μM alone) it was 2.4 fold.
Turning to `CCCC(C)(C)c1ccc2c(c1)OC(C)(C)[C@@H]1CC=C(C)C[C@@H]21` [JWH133], the histamine release entry is recorded as “inhibited the release of histamine” in the assay on RBL-2H3 cells [1] (setting [7]); “comparable” with RBL-2H3 cells [1] (SP-stimulated cells co-treated with JWH133 0.1 μM and AM630 0.1 μM, vs SP + vehicle); “No effect” in the assay with RBL-2H3 cells [1] (setting [8]). Also, the “number of degranulated cells” value in the assay with RBL-2H3 cells [2] (setting [7]) is “reduced the number of SP-degranulated RBL-2H3 cells”; with RBL-2H3 cells [2] (SP-stimulated cells co-treated with JWH133 0.1 μM and AM630 0.1 μM, vs SP + vehicle or SP + AM630) it was “comparable”. Also, the degranulation entry in the assay on RBL-2H3 cells [6] was “no effect”.

(Values after PMC6933707, “Palmitoylethanolamide counteracts substance P-induced mast cell activation in vitro by stimulating diacylglycerol lipase activity” (Journal of Neuroinflammation, 2019).)
